Here are results for 4 compounds from PMC3196344 (Nature medicine, 2009).

One data set concerns caspase-3/7. The experiment in a line: Caspase labeling in COLO205 tumors of Apomab-treated mice, SDS-PAGE. Type of data set: in vivo, human colorectal cancer COLO205 xenograft in nude mice. The note with it: Apomab 10 mg/kg IV; AB50-Cy5 50 nmol IV 1 h; COLO205 xenograft. Background: In xenograft studies the graft and the host belong to different species.
For data set [1], the system named is legumain. In words: Legumain labeling in COLO205 tumors of Apomab-treated mice, SDS-PAGE. Type of data set: in vivo, human colorectal cancer COLO205 xenograft in nude mice. To be noted: Apomab 10 mg/kg IV; AB50-Cy5.
In another data set the test system is cathepsins. The note with it: cited from earlier work.
For a further data set, the system named is caspases-3/7. The note with it: cited from earlier work.
For data set [2], the system named is legumain. To be noted: cited from earlier work.
The test system of the next data set is thymocytes. To be noted: after dex treatment; cited from earlier work.
The test system of another data set is CD4+/CD8+ thymocytes. In words: Flow cytometry of thymocytes from dex-treated mice. To be noted: measured by a drop in this cell population over time; dex 50 mg/kg IP. Type of data set: in vivo, BALB/c mice. (In general: A flow cytometer gives signals particle by particle.)
The conditions of data set [3]: leading to high background signals; cited from earlier work.
The conditions of data set [4]: exposed during late stages of apoptosis; cited from earlier work.

As to “Apomab: monoclonal antibody that induces the extrinsic apoptosis pathway by binding to death receptor 5”, the “time of optimal (peak) caspase activity after Apomab” value in the data set with caspase-3/7 stood at 12 h. Moreover, in the data set on legumain [1], the “legumain labeling over time course after Apomab” value is on record as “constant throughout the time course”.

For Asp-Glu-Val-Asp [DEVD], the recognition by cathepsins entry in the data set with cathepsins is reported as “efficiently recognized”. The “recognition by caspases-3/7” value in the data set on caspases-3/7 is listed as “optimal”. In the data set with legumain [2], the recognition by legumain entry is on record as “efficiently recognized”.

As for `C[C@@H]1C[C@H]2[C@@H]3CCC4=CC(=O)C=C[C@]4(C)[C@@]3(F)[C@@H](O)C[C@]2(C)[C@@]1(O)C(=O)CO` [dexamethasone], the “TUNEL+ staining at 18 and 24 hours” value with thymocytes is reported as “sharp decrease”. Also, the “induction of apoptosis in CD4+/CD8+ cells” value with CD4+/CD8+ thymocytes was “specifically induced apoptosis in CD4+/CD8+ cells”.

For “Annexin V: protein with high affinity for phosphatidylserines exposed during the late stages of apoptosis”, the clearance in vivo result in data set [3] was “slow clearance in vivo”. Besides, the affinity for phosphatidylserines result in data set [4] was “high affinity”.
